Data published in patent US10464920B2, “Vicinal primary diamines associated with metal and/or free radical chelation motifs, and active against carbonyl and oxidative stress, and use thereof” (UNIVERSITE AMIENS PICARDIE JULES VERNE, priority 2015, dated 2019).

Legend:
[1] = ORACFL test (Oxygen Radical Absorbance Capacity) using fluorescein/AAPH; type: physicochemical; settings: compounds at 10 μM; for ORACFL: mean ± SEM of three independent experiments in triplicate
Method: The antioxidant properties of the compounds according to the invention were evaluated using a ORACFL test using fluorescein (J. Agric. Food Chem., 2004 52, 48-54; J. Agric. Food Chem., 2005, 53, 4290-4302). As such, peroxide radicals, generated in the presence of AAPH (2,2′-azobis(2-methylpropionamidine)dihydrochloride) at 37° C., react with this fluorescent sensor in order to give a non-fluorescent product. The protective effect of the test compounds can then be determined by following the decay curve of the fluorescence of the fluorescein over time and be measuring the area under the curve (AUC) of the sample in relation to that of a control corresponding to an absence of antioxidant.
The trolox (6-hydroxy-2,5,7,8-tetramethylchroman-2-carboxylic acid), a water-soluble analogue of vitamin E, is used as a standard for calculating the antioxidant capacity (ORACFL) of the compounds tested at 10 μM, expressed in […] of tested compound. This value is as such obtained using the straight-line calibration equation giving the area under the curve according to the various concentrations of trolox (Bioorg. Med. Chem., 2015, 23, 1135-1148) (FIG. 11).
A solution of fluorescein (FL) (12 nM; 150 μL) is introduced into a black 96-well plate (Dutscher, Brumath, France). The compounds to be tested (1-20 μM; 25 μL) or trolox (1-50 μM; 25 μL) dissolved in D-PBS are added into each well. After equilibration of the plate during an incubation at 37° C. for a minimum of 30 min, the radical reactions are initiated using a solution of AAPH prepared extemporaneously (30 mM; 25 μL). The fluorescence (λEx: 485 nm; λEm: 520 nm) is measured every 90 seconds for 60 cycles using a temperature-controlled Tecan Infinite® 200 PRO microplate reader (measurements taken in triplicates during three independent experiments).

[2] = test system: rat pheochromocytoma cells, treated as neuronal cells (PC12); experiment: Cytotoxicity, cellular viability (CCK-8/WST-8) on PC12; type: cell-based
Method: (§1) The cellular viability is evaluated by a colorimetric method based on the detection of the conversion of a salt of the tetrazolium (WST-8) by the metabolically active cells (CCK-8 kit, Sigma, Lyons, France) (Molecules, 2014, 19(8), 12048-12064; J. Pharmacol. Toxicol. Methods., 2007, 56(1), 58-62). Living cells have mitochondrial dehydrogenases that reduce the WST-8 (2-(2-methoxy-4-nitrophenyl)-3-(4-nitrophenyl)-5-(2,4-disulfophenyl)-2H-tetrazolium), monosodium salt) to formazan of an orange colour, which dissolves directly in the culture medium in the presence of 1-Methoxy PMS (1-methoxy-5-methylphenazinium methyl sulphate). After an incubation for 1 h at 37° C., the absorbance of the formazan is measured at 450 nm. The absorbance is directly proportional to the number of living cells.
(§2) Briefly, the cells are inoculated in 96-well plates at a rate of 5.10^3 cells per well in 100 μL of the suitable medium until subconfluence. The cells are then washed with D-PBS, then treated with various concentrations (10 μM, 100 μM) of the products to be tested in triplicates for 24 and 48 h. A positive control is carried out with 10% of DMSO. The CCK-8 (10 μL) solution is then added to each well for an incubation for 1 h at 37° C. The measurement of the absorbance is taken at 450 nm using a Perkin Elmer 2103 Envision® microplate reader.
(§3) The viability of the cells is expressed as a % of the control (untreated cells) by the mean±standard deviation of triplicates forming a representative experiment or of three independent experiments conducted in triplicate.

[3] = test system: murine endothelial brain cells (bEnd.3); experiment: Cytotoxicity, cellular viability (CCK-8/WST-8) on bEnd.3; type: cell-based
Method: as §1, §2, §3

[4] = test system: human fibroblasts (MRC-5); experiment: Cytotoxicity, cellular viability (CCK-8/WST-8) on MRC-5; type: cell-based
Method: as §1, §2, §3

[5] = Formation of adducts with MGO, kinetic study by HPLC; type: physicochemical; settings: compound 10 mM, MGO 20 mM, 37° C., after 15 min of incubation
Method: The compounds to be tested are incubated at 37° C. in the presence of MGO or of MDA. A kinetic study aiming to report on the formation of adducts with the MGO or MDA is then carried out via HPLC analysis.
The compounds to be tested (30 μmol) are dissolved in PBS (1.5 mL). An aqueous solution (qsp 1.25 mL) of MGO at 40% in water (250 μmol) is then prepared and in parallel, MDA bis-(diOEt)-acetal (250 μmol) is set to react with a solution of HCl 1N (2 eq) in water (qsp 1.25 mL) for 1 h at room temperature. An aqueous solution of NaOH 0.05N is also required to neutralise the reaction medium (5 mL).
The solution of the compound to be tested (625 μL—final concentration in the medium=10 mM) is then set to react with the solution of MGO or of MDA prepared extemporaneously (125 μL—final concentration in the medium=20 mM) in the presence of NaOH 0.05 N (0.5 mL).
The various mixtures are then incubated in the oven at 37° C. for 24 h.
A sampling of each mixture (100 μL) is taken at regular intervals of time (0.25; 0.5; 1; 5 and 24 h) and stored at −20° C. in order to stop the reaction. After dilution in a MeCN/H2O 98:2 mixture at room temperature, the HPLC analysis is carried out on a Shimadzu LCMS-2020 apparatus (UV chromatogram at 190 nm and mass spectrum in positive electrospray ionisation mode (ESI+)) after separation on the Waters Acquity column using a gradient of solvents H2O+HCOOH 0.1%/MeCN+HCOOH 0.1% (98/2 for 2 min, then 55/45 for 2 min and 45/55 for 3 min) with a flow rate of 0.3 mL/min at 40° C. and an injection of volume of 1 (“detection mode: scan, interface voltage: tuning file, DL voltage: 100 V, Q-array DC: 40 V, Q-array RF: 40 V”). A blank is first of all carried out using a solution containing the reaction medium without scavenger. Then, a free scavenger solution at 10 mM is used as a negative control and the carnosine as a reference of the literature. The proportion of adducts formed with the MGO or MDA (generally, tR=4.1 to 6.8 min) is then measured in relation to the quantity of remaining free scavenger (generally, tR=0.8 to 4.6 min) after measurement of the area under the curve of the corresponding peaks on the UV spectrum (measurements taken for a representative sample).

[6] = test system: low-density lipoproteins (LDLs); experiment: Antiradical properties: inhibition of lipid peroxidation in AAPH-induced oxidation of LDLs; type: biochemical; settings: high concentration (100 μM)
Method: The antiradical properties of the various compounds are determined by inhibition of the lipid peroxidation in the in vitro model of the oxidation of the low-density lipoproteins (LDLs) (Free Radic. Biol. Med., 1992, 13, 341-390). The lipid peroxidation is initiated by the attack by free radicals of a double bond of a polyunsaturated fatty acid present in the LDLs. […] Once initiated, the oxidation of the LDLs is a chain reaction of lipid peroxidation generated by the free radicals. The oxidation in vitro of the LDLs is induced at 37° C. by the adding of the water-soluble compound 2,2′-Azobis(2-methylpropionamidine)dihydrochloride (AAPH), which generates free radicals during the spontaneous thermal breakdown thereof
Briefly, the oxidation, carried out in a 96-well plate, is induced at 37° C. by adding 20 μL of a solution of AAPH at 2 mM in D-PBS at 160 μL of LDL (100 μg/mL) in the presence or absence of 20 μL of the various solutions of the compounds to be tested dissolved in D-PBS (0.1 to 100 μM in final concentrations). The LDLs alone without adding AAPH are used as a negative control. Each oxidation is carried out in double. During the oxidation, the formation of the conjugated dienes is followed by the measurement of the optical density at 234 nm every 10 minutes for 8 h at 37° C. using a temperature-controlled TECAN spectrophotometer. The vitamin E (α-tocopherol) which is a powerful antioxidant recognised in this in vitro model is used as a reference molecule (J. Nutr. Biochem., 2012, 23, 845-51).

[7] = MRC-5, 10 μM, 24 h of treatment
[8] = MRC-5, 10 μM, 48 h of treatment
[9] = MRC-5, 100 μM, 24 h of treatment
[10] = MRC-5, 100 μM, 48 h of treatment

NCCC(=O)N[C@@H](Cc1cnc[nH]1)C(=O)O [Carnosine, carnosine, reference compound]
antioxidant capacity (ORACFL), in words [1]: very low activity | ORACFL [1]: 0.08 ± 0.05 μmol TE/μmol

NCC(N)CCC(=O)N1CCN(C(=O)c2cc(O)c(O)c(O)c2)CC1 (stereo not shown) [Compound 30a, 4,5-diamino-1-(4-(3,4,5-trihydroxybenzoyl)piperazin-1-yl)pentan-1-one]
ORACFL [1]: 0.89 ± 0.10 μmol TE/μmol | viability of the cells as a percentage of the untreated cells ([2]; rat, 24 h, 10 μM): 116% | viability of the cells as a percentage of the untreated cells ([2]; rat, 24 h, 100 μM): 140% | viability of the cells as a percentage of the untreated cells ([2]; rat, 48 h, 10 μM): 96% | viability of the cells as a percentage of the untreated cells ([2]; rat, 48 h, 100 μM): 113% | viability of the cells as a percentage of the untreated cells ([3]; mouse, 24 h, 10 μM): 117% | viability of the cells as a percentage of the untreated cells ([3]; mouse, 24 h, 100 μM): 96% | viability of the cells as a percentage of the untreated cells ([3]; mouse, 48 h, 10 μM): 95% | viability of the cells as a percentage of the untreated cells ([3]; mouse, 48 h, 100 μM): 108% | viability of the cells as a percentage of the untreated cells [4, 7]: 115% | viability of the cells as a percentage of the untreated cells [4, 8]: 101% | viability of the cells as a percentage of the untreated cells [4, 9]: 112% | viability of the cells as a percentage of the untreated cells [4, 10]: 103%

NCC(N)CC(=O)N1CCN(C(=O)CCn2cccc(O)c2=O)CC1 (stereo not shown) [Compound 37d, 1-(3-(4-(3,4-diaminobutanoyl)piperazin-1-yl)-3-oxopropyl)-3-hydroxypyridin-2(1H)-one]
ORACFL [1]: 1.21 ± 0.07 μmol TE/μmol

NCC(N)CCC(=O)N1CCN(C(=O)CCn2cccc(O)c2=O)CC1 (stereo not shown) [Compound 37f, 1-(3-(4-(4,5-diaminopentanoyl)piperazin-1-yl)-3-oxopropyl)-3-hydroxypyridin-2(1H)-one]
disappearance of the free scavenger to the benefit of adducts with the MGO [5]: almost total disappearance of the free scavenger | ORACFL [1]: 1.96 ± 0.24 μmol TE/μmol

Cl.Cl.NCC(N)C(=O)N1CCNCC1 (stereo not shown) [Dap-Pip, reference compound]
antioxidant capacity (ORACFL), in words [1]: absence of activity | ORACFL [1]: 0 μmol TE/μmol | viability of the cells as a percentage of the untreated cells ([2]; PC12, 10 μM, 24 h of treatment): 114% | viability of the cells as a percentage of the untreated cells ([2]; PC12, 10 μM, 48 h of treatment): 110% | viability of the cells as a percentage of the untreated cells ([2]; PC12, 100 μM, 24 h of treatment): 120% | viability of the cells as a percentage of the untreated cells ([2]; PC12, 100 μM, 48 h of treatment): 102% | anti-radical effect [6]: does not show any anti-radical effect | viability of the cells as a percentage of the untreated cells ([3]; bEnd.3, 10 μM, 24 h of treatment): 123% | viability of the cells as a percentage of the untreated cells ([3]; bEnd.3, 10 μM, 48 h of treatment): 131% | viability of the cells as a percentage of the untreated cells ([3]; bEnd.3, 100 μM, 24 h of treatment): 103% | viability of the cells as a percentage of the untreated cells ([3]; bEnd.3, 100 μM, 48 h of treatment): 142% | viability of the cells as a percentage of the untreated cells [4, 7]: 125% | viability of the cells as a percentage of the untreated cells [4, 8]: 113% | viability of the cells as a percentage of the untreated cells [4, 9]: 128% | viability of the cells as a percentage of the untreated cells [4, 10]: 111%

Cc1c(C)c2c(c(C)c1O)CCC(C)(C(=O)O)O2 (stereo not shown) [Trolox, 6-hydroxy-2,5,7,8-tetramethylchroman-2-carboxylic acid, reference compound]
ORACFL [1]: 1 μmol TE/μmol
